# In PMC3408453, “A Foldamer-Dendrimer Conjugate Neutralizes Synaptotoxic β-Amyloid Oligomers” (PLoS ONE, 2012):
# Columns and labels:
# [1] = biological target: T1, HMW fraction of Aβ oligomers (Homo sapiens, UniProt P05067); assay: Concentration-dependent dot blot with SEC-separated HMW Aβ oligomer fraction; type: binding; conditions: 10 µg ligand spotted, BAM10 1∶500
# T1 construct: a depsipeptide derivative of Aβ(1–42) was utilized; made in house; host or cells: chemical peptide synthesis (no expression host)
# Description: ITC measurement for 7 indicated fractional stoichiometry for the low nM binding, which pointed to that the high affinity interaction involves only a fraction of the oligomeric Aβ sample. To localize the strongly binding fraction in the mixture, size exclusion chromatographic (SEC) separation was carried out and the resulting Aβ oligomer fractions were tested with 7 in concentration-dependent dot blot experiments. Two dominant peaks were found in the SEC chromatogram corresponding to the high molecular weight (HMW) and low molecular weight (LMW) components (Figure 7). […] In control experiments, specific and/or preferential binding of Aβ by the membrane itself were ruled out. These findings were in line with the ITC and ELISA results. It could be concluded that 7 preferentially bound to the LMW fraction at low nM concentration and also interacted with the HMW fraction at sub-µM level.
# Figure 7 Selective binding to the LMW Aβ oligomers in the nM range. Size exclusion chromatographic separation of the HMW and LMW fractions of the Aβ oligomeric sample (top panel). Concentration-dependent dot blot experiments performed with the HMW (A) and the LMW fractions (B). The ligand loadings were 10 µg aliquots of 7, and the sequence specific antibody BAM10 (1∶500) was utilized. Lanes within the panels are parallel experiments. […]
# Aβ oligomers [2] = biological target: T2, Aβ oligomers (Homo sapiens, UniProt P05067); assay: Transmission electron microscopy of Aβ oligomers with ligand; conditions: 72 µM Aβ oligomer + 36 µM ligand
# T2 construct: a depsipeptide derivative of Aβ(1–42) was utilized; made in house; host or cells: chemical peptide synthesis (no expression host)
# Description: The concentration-dependent increase of the particle size described above raised the question if this phenomenon was linked to an accelerated fibrillization or to any form of conformational remodeling of the Aβ oligomers. […] The shape of the aggregates was unequivocally different from that of the mature fibrils.
# Figure 8 Affinity precipitation as detected by TEM. (A) TEM image of the 72 µM Aβ oligomer. (B) TEM image of the 72 µM Aβ oligomer upon addition of 36 µM 7.
# Oligomer solution was placed on formvar-carbon-coated 400-mesh copper grids (Electron Microscopy Sciences, Washington, PA) and stained negatively with uranyl acetate. The aggregates were characterized by TEM on a Philips CM 10 transmission electron microscope (FEI Company, Hillsboro, Oregon, USA) operating at 100 kV. Images were taken with a Megaview II Soft Imaging System, routinely at magnifications of ×46000 and ×64000, and analyzed with an AnalySis® 3.2 software package (Soft Imaging System GmbH, Münster, Germany).
# Aβ oligomers [3] = biological target: T2, Aβ oligomers; assay: Precipitation study at 1 µM Aβ oligomer, supernatant Aβ by ELISA; conditions: 1 µM Aβ oligomer, 0.2, 0.5 and 1.0 equivalents of ligand, 15000× g, 3 h
# Description: The extent of precipitation was also tested at an Aβ oligomer concentration of 1 µM. The Aβ oligomer sample was mixed with 0, 0.2, 0.5 and 1.0 equivalents of 7, centrifuged at 15000× g for 3 h and the supernatant was tested for residual Aβ concentration by using a standard ELISA (Figure 11).
# Aβ concentrations determined by ELISA in supernatants obtained from samples containing 1 µM Aβ oligomer mixed with 0, 0.2, 0.5 and 1.0 equivalents of 7 and centrifuged at 15000×g (room temperature, 3 h).
# 1 μM solution of the Aβ oligomer sample was prepared. This solution was divided to 4×15 ml fractions and 7 was added to three samples in 1, 0.5 or 0.2 μM final concentration, respectively. All the four samples were divided into […] (2×5 ml). One fraction from each sample was centrifuged at 15000×g at RT for 3 hours in a Roth MIKRO 200 Microcentrifuge (Carl-Roth GmbH Karlsruhe, Germany) centrifuge. […]
# Different amounts of Aβ (0.0001, 0.0003, 0.001, 0.003, 0.01, 0.03, 0.1, 0.3 µg pro well) were coated in the wells (6 parallels for each concentration) of a 96 well plate. […] Without using a stopping reagent, the absorbance at 370 nm was constantly monitored using a FLUOstar OPTIMA Multidetection Microplate Reader (BMG LABTECH, Offenburg, Germany). Data values were read at the saturation point of the signal curves. The supernatants were analysed according to the concentration calibration.
# T2 sequence (P05067 672-713 limits assumed): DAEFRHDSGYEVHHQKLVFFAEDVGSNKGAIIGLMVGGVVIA
# T1 sequence (P05067 672-713 limits assumed): as above
smiles,measurement,setting,value
N=C(N)NCCC[C@@H](CC(=O)N[C@H]1CCCC[C@@H]1C(=O)N[C@H]1CCCC[C@@H]1C(=O)N[C@@H](CC(=O)O)CC(=O)N[C@H]1CCCC[C@@H]1C(=O)NCC(=O)NCC(=O)N[C@@H](CSC1CC(=O)N(CCC(=O)NCCNC(=O)CCN(CCC(=O)NCCNC(=O)CCN2C(=O)CC(SC[C@H](NC(=O)CNC(=O)CNC(=O)[C@H]3CCCC[C@@H]3NC(=O)C[C@H](CC(=O)O)NC(=O)[C@H]3CCCC[C@@H]3NC(=O)[C@H]3CCCC[C@@H]3NC(=O)C[C@H](CCCNC(=N)N)NC(=O)[C@H]3CCCC[C@@H]3N)C(N)=O)C2=O)CCN(CCC(=O)NCCNC(=O)CCN2C(=O)CC(SC[C@H](NC(=O)CNC(=O)CNC(=O)[C@H]3CCCC[C@@H]3NC(=O)C[C@H](CC(=O)O)NC(=O)[C@H]3CCCC[C@@H]3NC(=O)[C@H]3CCCC[C@@H]3NC(=O)C[C@H](CCCNC(=N)N)NC(=O)[C@H]3CCCC[C@@H]3N)C(N)=O)C2=O)CCC(=O)NCCNC(=O)CCN2C(=O)CC(SC[C@H](NC(=O)CNC(=O)CNC(=O)[C@H]3CCCC[C@@H]3NC(=O)C[C@H](CC(=O)O)NC(=O)[C@H]3CCCC[C@@H]3NC(=O)[C@H]3CCCC[C@@H]3NC(=O)C[C@H](CCCNC(=N)N)NC(=O)[C@H]3CCCC[C@@H]3N)C(N)=O)C2=O)C1=O)C(N)=O)NC(=O)[C@H]1CCCC[C@@H]1N (stereo partly drawn) [Compound 7],Dot blot binding of HMW Aβ oligomer fraction,[1],stained with just below micromolar affinity
same,TEM: effect on Aβ oligomer particle morphology,Aβ oligomers [2],caused association of the spherical oligomers a few nm in size into bundles of aggregates in the μm range
same,Loss of soluble Aβ after centrifugation (supernatant ELISA),Aβ oligomers [3],no significant loss of soluble material
